Numbered stars: 1 amine (or outer) side, 2 acyl side, 3 side chain; on linkers, the order of the positions; unused ones are H or OH. Bridge positions count the residues as written; N and C are the ends. Square brackets hold non-standard residues; d marks the D form. Peptide text beside a SMILES is read from it. * marks the point of attachment. hTyr(3S-OH,4S-OH,3'-OSO3H) = N[C@H](C(=O)O)[C@H](O)[C@@H](O)c1ccc(O)c(OS(=O)(=O)O)c1; pTerphenylCO(4''-OnC5H11) = CCCCCOc1ccc(-c2ccc(-c3ccc(C(=O)*)cc3)cc2)cc1; Orn(4R-OH,5R-OH) = O=C([C@H](C[C@@H](O)[C@@H](O)N[*:3])N[*:1])[*:2]; hTyr(3S-OH,4S-OH) = N[C@H](C(=O)O)[C@H](O)[C@@H](O)c1ccc(O)cc1; Pro(3S-OH,4S-Me) = C[C@H]1CN[C@H](C(=O)O)[C@H]1O; X1 = CCCCCOc1ccc(-c2cc(-c3ccc(C(=O)*)cc3)no2)cc1; Gln(3R-OH) = NC(=O)C[C@@H](O)[C@H](N)C(=O)O; Hyp = O=C(O)[C@@H]1C[C@@H](O)CN1
What was measured:
Candida tropicalis [1] = assay: Antifungal activity against Candida tropicalis isolate 0050-028 after 24 hrs by CLSI M27-A2 broth microdilution method in presence of 50% human serum; type: functional; conditions: isolate 0050-028, 24 h
Candida tropicalis [2] = assay: Antifungal activity against Candida tropicalis isolate 0022-021 after 24 hrs by CLSI M27-A2 broth microdilution method in presence of 50% human serum; type: functional; conditions: isolate 0022-021, 24 h
Candida parapsilosis = assay: Ratio of MIC50 for Candida parapsilosis isolate 0014-074 in presence of 50% human serum to MIC50 for Candida parapsilosis isolate 0014-074 in presence of RPMI 1640 medium; type: functional
Nakaseomyces glabratus [3] = assay: Ratio of MIC50 for Candida glabrata isolate 0049-038 in presence of 50% human serum to MIC50 for Candida glabrata isolate 0049-038 in presence of RPMI 1640 medium; type: functional
Nakaseomyces glabratus [4] = assay: Antifungal activity against Candida glabrata isolate 0049-038 after 24 hrs by CLSI M27-A2 broth microdilution method in presence of RPMI 1640 medium; type: functional; conditions: isolate 0049-038, 24 h
Pichia kudriavzevii = assay: Antifungal activity against Candida krusei isolate 0013-054 after 24 hrs by CLSI M27-A2 broth microdilution method in presence of 50% human serum; type: functional; conditions: isolate 0013-054, 24 h
Aspergillus flavus = assay: Antifungal activity against Aspergillus flavus isolate 0001-061 after 24 hrs by CLSI M38-A broth microdilution method in presence of 50% human serum; type: functional; conditions: isolate 0001-061, 24 h
Aspergillus terreus = assay: Antifungal activity against Aspergillus terreus isolate 0031-087 after 48 hrs by CLSI M38-A broth microdilution method in presence of RPMI 1640 medium; type: functional; conditions: isolate 0031-087, 48 h
[5] = Protein binding in human serum at 1 to 1000 ug/mL by scintillation counting; type: ADME, cell-free; conditions: read-out: PB (converted)
[6] = Protein binding in mouse serum at 1 to 1000 ug/mL by scintillation counting; type: ADME, cell-free; conditions: read-out: PB (converted)

Row | SMILES | MIC50 (Candida tropicalis [1]) [µg/mL] | MIC50 (Candida tropicalis [2]) [µg/mL] | Ratio (Candida parapsilosis) | Ratio (Nakaseomyces glabratus [3]) | MIC50 (Nakaseomyces glabratus [4]) [µg/mL] | MIC50 (Pichia kudriavzevii) [µg/mL] | MIC50 (Aspergillus flavus) [µg/mL] | MIC50 (Aspergillus terreus) [µg/mL] | fraction unbound [5] | fraction unbound [6]
1 | CCCCCOc1ccc(-c2ccc(-c3ccc(C(=O)N[C@H]4C[C@@H](O)[C@@H](O)NC(=O)[C@@H]5[C@@H](O)[C@@H](C)CN5C(=O)[C@H]([C@@H](C)O)NC(=O)[C@H]([C@H](O)[C@@H](O)c5ccc(O)cc5)NC(=O)[C@@H]5C[C@@H](O)CN5C(=O)[C@H]([C@@H](C)O)NC4=O)cc3)cc2)cc1 [ANIDULAFUNGIN] ({pTerphenylCO(4''-OnC5H11)}-[Orn(4R-OH,5R-OH)]T[Hyp][hTyr(3S-OH,4S-OH)]T[Pro(3S-OH,4S-Me)]; lactam 1-C) | 128 | 2 | 64 | 32 | 0.0625 | 4 | 128 | 0.0156 |  | 
2 | CC[C@H](C)C[C@H](C)CCCCCCCCC(=O)N[C@H]1C[C@@H](O)[C@@H](NCCN)NC(=O)[C@@H]2[C@@H](O)CCN2C(=O)[C@H]([C@H](O)CCN)NC(=O)[C@H]([C@H](O)[C@@H](O)c2ccc(O)cc2)NC(=O)[C@@H]2C[C@@H](O)CN2C(=O)[C@H]([C@@H](C)O)NC1=O [CASPOFUNGIN] | 2 | 0.5 | 2 | 1 | 0.5 | 2 | 128 | 0.5 | 0.04 | 0.04
3 | CCCCCOc1ccc(-c2cc(-c3ccc(C(=O)N[C@H]4C[C@@H](O)[C@@H](O)NC(=O)[C@@H]5[C@@H](O)[C@@H](C)CN5C(=O)[C@H]([C@H](O)CC(N)=O)NC(=O)[C@H]([C@H](O)[C@@H](O)c5ccc(O)c(OS(=O)(=O)O)c5)NC(=O)[C@@H]5C[C@@H](O)CN5C(=O)[C@H]([C@@H](C)O)NC4=O)cc3)no2)cc1 [MICAFUNGIN] (X1-[Orn(4R-OH,5R-OH)]T[Hyp][hTyr(3S-OH,4S-OH,3'-OSO3H)][Gln(3R-OH)][Pro(3S-OH,4S-Me)]; lactam 1-C) | 32 | 2 | 32 | 256 | 0.004 | 8 | 128 | 0.002 |  | 
